Key:
c-Cbl = c-Cbl (Homo sapiens (Human), UniProt P22681); experiment: C-cbl LCK Ub TR-FRET assay (C-cbl Lck HTRF); assay type: biochemical
Procedure: (§1) Compounds were 3-fold serially diluted in DMSO in a 384-well polypropylene plate (#P-05525-BC; Labcyte) to generate a source plate with 10 concentrations of each compound, top concentration=2 mM. 80 nL of DMSO or compounds were transferred to each well of a black 384-well ProxiPlate (#6008260; PerkinElmer) using a Labcyte Echo. 1× assay buffer (50 mM HEPES pH7.0, 100 mM NaCl, 0.01% BSA, 0.01% Triton-X100, 1 mM DTT), 2× enzyme solution (16 nM Biotin-Cbl-b or 12 nM Biotin-c-Cbl in 1× assay buffer), 2× kinase mixture (120 nM His-LCK, 1 mM ATP, 10 mM MgCl2 in assay buffer) and 2.33× detection mixture (4.66× solution 1: 163 nM Anti-HA-D2 antibody (#610HADAB; PerkinElmer), 27.96 nM Streptavidin-EU (#AD0062; PerkinElmer), 1.398 mM EDTA in 1× assay buffer+4.66× solution 2: 2.796 μM UBE2D2/Methylated-HA-Ubiquitin thioester adduct (BostonBiochem) in 1× assay buffer) were prepared. 4 μL of 2× enzyme solution was added to each well containing compound, briefly centrifuged to mix, and incubated for 60 min at room temperature. 4 μL of 2× kinase mixture was added, briefly centrifuged to mix, and incubated for 90 min. at room temperature. 6 μL of detection mixture was added to all wells and briefly centrifuged before incubating for 20 min at room temperature. Plates were read for TR-FRET using an Envision at excitation 340 nm, emission at 615 and 665 nm, 4 flashes per well. IC50 was generated using no LCK as the low control and DMSO as the high control.
(§2) Cbl-b Lck HTRF data in Table 3 is measured according to Example 25 herein; C-cbl Lck HTRF data is measured according to Example 25 herein.
(§3) SPR and the LCK biochemical assay are orthogonal assays: SPR is a protein binding assay while the LCK assay is an enzyme activity assay. SPR measures compound binding affinity to CBL-B/C-CBL, whereas LCK assay measures compound inhibition of CBL-B/C-CBL ubiquitin transfer activity.

Cbl-b = Cbl-b (Homo sapiens (Human), UniProt Q13191); experiment: Cbl-b LCK Ub TR-FRET assay (Cbl-b Lck HTRF); assay type: biochemical; settings: for (fold-selectivity): Cbl-b and C-Cbl selectivity, Lck HTRF; for IC50: read-out: Cbl-b Lck HTRF IC50
Procedure: as §1, §2, §3

Cbl-b, sequence (Q13191 40-426): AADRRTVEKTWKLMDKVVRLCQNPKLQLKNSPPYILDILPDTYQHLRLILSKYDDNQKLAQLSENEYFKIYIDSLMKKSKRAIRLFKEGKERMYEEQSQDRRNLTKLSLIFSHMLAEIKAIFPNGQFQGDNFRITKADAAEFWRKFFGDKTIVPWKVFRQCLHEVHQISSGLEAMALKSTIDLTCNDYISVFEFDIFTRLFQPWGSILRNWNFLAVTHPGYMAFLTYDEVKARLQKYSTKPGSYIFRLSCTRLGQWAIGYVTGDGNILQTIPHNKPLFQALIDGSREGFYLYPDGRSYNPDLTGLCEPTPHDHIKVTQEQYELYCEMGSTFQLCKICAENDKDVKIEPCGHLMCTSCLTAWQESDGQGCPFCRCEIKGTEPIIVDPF
c-Cbl, sequence (P22681 47-435): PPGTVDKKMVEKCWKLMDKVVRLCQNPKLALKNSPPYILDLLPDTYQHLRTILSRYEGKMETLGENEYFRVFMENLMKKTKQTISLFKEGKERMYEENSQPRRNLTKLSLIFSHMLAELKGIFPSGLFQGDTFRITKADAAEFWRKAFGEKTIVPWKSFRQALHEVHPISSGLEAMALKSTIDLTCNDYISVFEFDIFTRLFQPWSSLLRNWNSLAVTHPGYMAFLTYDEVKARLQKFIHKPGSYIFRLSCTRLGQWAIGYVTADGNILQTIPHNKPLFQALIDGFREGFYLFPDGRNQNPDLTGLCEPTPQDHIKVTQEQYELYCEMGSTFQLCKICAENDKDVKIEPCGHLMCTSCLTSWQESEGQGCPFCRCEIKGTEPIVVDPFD

With `Cn1cnnc1[C@H](F)[C@](C)(F)c1cccc(NC(=O)c2cc(CN3CCC4(CC4)C3)cc(C3CC3)n2)c1` [Compound 35, 4-(5-azaspiro[2.4]heptan-5-ylmethyl)-6-cyclopropyl-N-(3-((1S,2R)-1,2-difluoro-1-(4-methyl-4H-1,2,4-triazol-3-yl)propan-2-yl)phenyl)picolinamide] the IC50 (c-Cbl) was 400 nM, the “(fold-selectivity)” value (Cbl-b) was “(1.8x)” and the IC50 (Cbl-b) was 23 nM.
In the case of `Cn1cnnc1[C@H](F)[C@@](C)(F)c1cccc(NC(=O)c2cc(CN3CCC4(CC4)C3)cc(C3CC3)n2)c1` [Compound 36, 4-(5-azaspiro[2.4]heptan-5-ylmethyl)-6-cyclopropyl-N-(3-((1S,2S)-1,2-difluoro-1-(4-methyl-4H-1,2,4-triazol-3-yl)propan-2-yl)phenyl)picolinamide], the IC50 (c-Cbl) is reported as 240 nM, the “(fold-selectivity)” value (Cbl-b) is reported as “(1.8x)” and the IC50 (Cbl-b) is reported as 140 nM.
With `Cn1cnnc1[C@@H](F)[C@@](C)(F)c1cccc(NC(=O)c2cc(CN3CCC4(CC4)C3)cc(C3CC3)n2)c1` [Compound 37, 4-(5-azaspiro[2.4]heptan-5-ylmethyl)-6-cyclopropyl-N-(3-((1R,2S)-1,2-difluoro-1-(4-methyl-4H-1,2,4-triazol-3-yl)propan-2-yl)phenyl)picolinamide] the IC50 (c-Cbl) was 1500 nM, the “(fold-selectivity)” value (Cbl-b) was “(2.0x)” and the IC50 (Cbl-b) was 780 nM.
In the case of `Cn1cnnc1[C@@H](F)[C@](C)(F)c1cccc(NC(=O)c2cc(CN3CCC4(CC4)C3)cc(C3CC3)n2)c1` [Compound 38, 4-(5-azaspiro[2.4]heptan-5-ylmethyl)-6-cyclopropyl-N-(3-((1R,2R)-1,2-difluoro-1-(4-methyl-4H-1,2,4-triazol-3-yl)propan-2-yl)phenyl)picolinamide], the IC50 (c-Cbl) is reported as 42 nM, the “(fold-selectivity)” value (Cbl-b) is reported as “(1.7x)” and the IC50 (Cbl-b) is reported as 25 nM.
With `Cn1cnnc1[C@H](F)[C@](C)(F)c1cccc(NC(=O)c2cc(CN3CCC4(CC4)C3)nc(C3CC3)n2)c1` [Compound 39, 6-(5-azaspiro[2.4]heptan-5-ylmethyl)-2-cyclopropyl-N-(3-((1S,2R)-1,2-difluoro-1-(4-methyl-4H-1,2,4-triazol-3-yl)propan-2-yl)phenyl)pyrimidine-4-carboxamide] the IC50 (c-Cbl) was 340 nM, the “(fold-selectivity)” value (Cbl-b) was “(1.9x)” and the IC50 (Cbl-b) was 180 nM.
With `Cn1cnnc1[C@H](F)[C@@](C)(F)c1cccc(NC(=O)c2cc(CN3CCC4(CC4)C3)nc(C3CC3)n2)c1` [Compound 40, 6-(5-azaspiro[2.4]heptan-5-ylmethyl)-2-cyclopropyl-N-(3-((1S,2S)-1,2-difluoro-1-(4-methyl-4H-1,2,4-triazol-3-yl)propan-2-yl)phenyl)pyrimidine-4-carboxamide] the IC50 (c-Cbl) was 2100 nM, the “(fold-selectivity)” value (Cbl-b) was “(2.3x)” and the IC50 (Cbl-b) was 880 nM.
With `Cn1cnnc1[C@@H](F)[C@@](C)(F)c1cccc(NC(=O)c2cc(CN3CCC4(CC4)C3)nc(C3CC3)n2)c1` [Compound 41, 6-(5-azaspiro[2.4]heptan-5-ylmethyl)-2-cyclopropyl-N-(3-((1R,2S)-1,2-difluoro-1-(4-methyl-4H-1,2,4-triazol-3-yl)propan-2-yl)phenyl)pyrimidine-4-carboxamide] the IC50 (c-Cbl) was 12000 nM, the “(fold-selectivity)” value (Cbl-b) was “(2.5x)” and the IC50 (Cbl-b) was 4800 nM.
`Cn1cnnc1[C@@H](F)[C@](C)(F)c1cccc(NC(=O)c2cc(CN3CCC4(CC4)C3)nc(C3CC3)n2)c1` [Compound 42, 6-(5-azaspiro[2.4]heptan-5-ylmethyl)-2-cyclopropyl-N-(3-((1R,2R)-1,2-difluoro-1-(4-methyl-4H-1,2,4-triazol-3-yl)propan-2-yl)phenyl)pyrimidine-4-carboxamide] was tested, and the IC50 (c-Cbl) was 270 nM, the “(fold-selectivity)” value (Cbl-b) was “(1.4x)” and the IC50 (Cbl-b) was 190 nM.
For `Cn1cnnc1[C@H](F)[C@](C)(F)c1cccc(NC(=O)c2cc(CN3CC(C)(F)C3)nc(C3CC3)n2)c1` [Compound 43, 2-cyclopropyl-N-(3-((1S,2R)-1,2-difluoro-1-(4-methyl-4H-1,2,4-triazol-3-yl)propan-2-yl)phenyl)-6-((3-fluoro-3-methylazetidin-1-yl)methyl)pyrimidine-4-carboxamide], the IC50 (c-Cbl) was 740 nM, the “(fold-selectivity)” value (Cbl-b) was “(2.3x)” and the IC50 (Cbl-b) was 320 nM.
With `Cn1cnnc1[C@H](F)[C@@](C)(F)c1cccc(NC(=O)c2cc(CN3CC(C)(F)C3)nc(C3CC3)n2)c1` [Compound 44, 2-cyclopropyl-N-(3-((1S,2S)-1,2-difluoro-1-(4-methyl-4H-1,2,4-triazol-3-yl)propan-2-yl)phenyl)-6-((3-fluoro-3-methylazetidin-1-yl)methyl)pyrimidine-4-carboxamide] the IC50 (c-Cbl) was 4900 nM, the “(fold-selectivity)” value (Cbl-b) was “(2.1x)” and the IC50 (Cbl-b) was 2300 nM.
For `Cn1cnnc1[C@H](F)C1(c2cccc(NC(=O)c3cc(CN4CC(C)(F)C4)cc(C(F)(F)F)n3)c2)COC1` [Compound 60, (R)-N-(3-(3-(fluoro(4-methyl-4H-1,2,4-triazol-3-yl)methyl)oxetan-3-yl)phenyl)-4-((3-fluoro-3-methylazetidin-1-yl)methyl)-6-(trifluoromethyl)picolinamide], the IC50 (c-Cbl) was 330 nM, the “(fold-selectivity)” value (Cbl-b) was “(2.5x)” and the IC50 (Cbl-b) was 130 nM.
In the case of `Cn1cnnc1[C@@H](F)C1(c2cccc(NC(=O)c3cc(CN4CC(C)(F)C4)cc(C(F)(F)F)n3)c2)COC1` [Compound 61, (S)-N-(3-(3-(fluoro(4-methyl-4H-1,2,4-triazol-3-yl)methyl)oxetan-3-yl)phenyl)-4-((3-fluoro-3-methylazetidin-1-yl)methyl)-6-(trifluoromethyl)picolinamide], the IC50 (c-Cbl) is reported as 420 nM, the “(fold-selectivity)” value (Cbl-b) is reported as “(2.3x)” and the IC50 (Cbl-b) is reported as 180 nM.
With `Cn1cnnc1[C@H](F)C1(c2cccc(NC(=O)c3cc(CN4CCC5(CC5)C4)nc(C4CC4)n3)c2)COC1` [Compound 62, (R)-6-((5-azaspiro[2.4]heptan-5-yl)methyl)-2-cyclopropyl-N-(3-(3-(fluoro(4-methyl-4H-1,2,4-triazol-3-yl)methyl)oxetan-3-yl)phenyl)pyrimidine-4-carboxamide] the IC50 (c-Cbl) was 140 nM, the “(fold-selectivity)” value (Cbl-b) was “(1.2x)” and the IC50 (Cbl-b) was 120 nM.
In the case of `Cn1cnnc1[C@@H](F)C1(c2cccc(NC(=O)c3cc(CN4CCC5(CC5)C4)nc(C4CC4)n3)c2)COC1` [Compound 63, (S)-6-((5-azaspiro[2.4]heptan-5-yl)methyl)-2-cyclopropyl-N-(3-(3-(fluoro(4-methyl-4H-1,2,4-triazol-3-yl)methyl)oxetan-3-yl)phenyl)pyrimidine-4-carboxamide], the IC50 (c-Cbl) is reported as 180 nM, the “(fold-selectivity)” value (Cbl-b) is reported as “(1.1x)” and the IC50 (Cbl-b) is reported as 170 nM.
For `Cn1cnnc1[C@H](F)C1(c2cccc(NC(=O)c3cc(CN)cc(C(F)(F)F)n3)c2)COC1.O=CO` [Compound 64, (R)-4-(aminomethyl)-N-(3-(3-(fluoro(4-methyl-4H-1,2,4-triazol-3-yl)methyl)oxetan-3-yl)phenyl)-6-(trifluoromethyl)picolinamide formate], the IC50 (c-Cbl) was 230 nM, the “(fold-selectivity)” value (Cbl-b) was “(1.2x)” and the IC50 (Cbl-b) was 200 nM.
For `Cn1cnnc1[C@@H](F)C1(c2cccc(NC(=O)c3cc(CN)cc(C(F)(F)F)n3)c2)COC1.O=CO` [Compound 65, (S)-4-(aminomethyl)-N-(3-(3-(fluoro(4-methyl-4H-1,2,4-triazol-3-yl)methyl)oxetan-3-yl)phenyl)-6-(trifluoromethyl)picolinamide formate], the IC50 (c-Cbl) was 230 nM, the “(fold-selectivity)” value (Cbl-b) was “(1.2x)” and the IC50 (Cbl-b) was 200 nM.
In the case of `CN(C)Cc1cc(C(=O)Nc2cccc(C3(Cc4nncn4C)COC3)c2)nc(C(F)(F)F)c1` [Compound 67, 4-((dimethylamino)methyl)-N-(3-(3-((4-methyl-4H-1,2,4-triazol-3-yl)methyl)oxetan-3-yl)phenyl)-6-(trifluoromethyl)picolinamide], the IC50 (c-Cbl) is reported as 340 nM, the “(fold-selectivity)” value (Cbl-b) is reported as “(1.6x)” and the IC50 (Cbl-b) is reported as 210 nM.
`Cn1cnnc1CC1(c2cccc(NC(=O)c3cc(CN4CCC5(CC5)C4)cc(C(F)(F)F)n3)c2)COC1` [Compound 98, 4-((5-azaspiro[2.4]heptan-5-yl)methyl)-N-(3-(3-((4-methyl-4H-1,2,4-triazol-3-yl)methyl)oxetan-3-yl)phenyl)-6-(trifluoromethyl)picolinamide] was tested, and the IC50 (c-Cbl) was 78 nM, the “(fold-selectivity)” value (Cbl-b) was “(1.8x)” and the IC50 (Cbl-b) was 44 nM.
In the case of `C[C@@H](c1cc(C(=O)Nc2cccc(C3([C@@H](F)c4nncn4C)COC3)c2)nc(C2CC2)c1)N1CC(C)(F)C1` [Compound 112, 6-cyclopropyl-N-(3-(3-((R)-fluoro(4-methyl-4H-1,2,4-triazol-3-yl)methyl)oxetan-3-yl)phenyl)-4-((S)-1-(3-fluoro-3-methylazetidin-1-yl)ethyl)picolinamide], the IC50 (c-Cbl) is reported as 210 nM, the “(fold-selectivity)” value (Cbl-b) is reported as “(0.94x)” and the IC50 (Cbl-b) is reported as 230 nM.

Reference: patent US20240300927A1, “AMIDES AS CBL-B INHIBITORS” (Genentech, Inc., priority 2021, published 2024)
